Measured values as given in article PMC9595134, “Novel pituitary actions of GnRH in teleost: The link between reproduction and feeding regulation” (Frontiers in Endocrinology, 2022).
Where a SMILES comes first, the peptide text is derived from it. [ ]: non-standard residue; d: D form. pGlu = O=C1CC[C@@H](C(=O)O)N1

Key:
[1] = system: grass carp pituitary cells; test: qRT-PCR of reproductive hormone genes in pituitary cells; format: cell-based, grass carp (Ctenopharyngodon idellus)
Method: (§1) The preparation of grass carp pituitary cells was performed as mentioned above. After drug treatment, the total RNA of these cells was isolated by TRIzol reagent and reverse transcribed into cDNA with Hifair™ III 1st Strand cDNA Synthesis Kit. The transcript levels of several anorectic peptides (POMCb, CART2, UTS1, NMBa, NMBb, and Lepr) and reproductive genes (GtHα, LHβ, FSHβ, INHBa, SgII, DRD2) were detected by using an ABI 7500 quantitative real-time PCR (qRT-PCR) system (Biosystems, USA) (information of primers for target genes is listed in Supplementary Table S3 ). In this process, a serial gradient dilution of plasmid DNA of these genes was used as a standard for data calibration. The conditions of qRT-PCR were set to 10 min, 95°C, for pre-degeneration; 15 s, 95°C, for degeneration; 30 s, 55°C–60°C, for annealing; 30 s, 72°C, for extending; and 20 s, 82°C, for signal detection with 40 cycles. Finally, the melt curve obtained through each test was used to verify and check the reliability and specificity of the corresponding qRT-PCR.
(§2) The transcript level was detected using qRT-PCR by ABI 7500 software, while the data calibration of each reaction was performed through standard curves with the dynamic range of 10^5 and correlation coefficient >0.95. The transcript level of β-actin was used as an internal control, and target gene mRNA expression was normalized and calculated as a percentage of the mean value (as “% Ctrl”). Based on merging four to eight replicates (as mean ± SEM), the data were analyzed with a one-way ANOVA to differentiate the significant differences from other treatment experiments. The SPSS Statistics 26.0 software was used to do a Dunnett’s post-hoc test. […] The different letters represent a significant difference at p < 0.05 between groups.
To further verify the reproductive function of GnRHs, time- and dose-dependent tests were performed to detect GnRH2- or GnRH3-regulated GtHα, LHβ, FSHβ, INHBa, SgII, and DRD2 mRNA expression in grass carp pituitary cells. […] In the dose-dependent test, a continuous gradient dilution of GnRH2 (0.1–1,000 nM) or GnRH3 (0.1–1,000 nM) was incubated with grass carp pituitary cells for 24 h.
Figure 5 Regulation of reproductive hormone gene mRNA expression by GnRH2 and GnRH3 in grass carp pituitary cells. (A) Time-course experiment of grass carp GnRH2 (1 μM) and GnRH3 (1 μM) on GtHα, LHβ, FSHβ, INHBa, SgII, and DRD2 mRNA expression in grass carp pituitary cells. (B) Dose dependence of a 24-h treatment with increasing levels of GnRH2 and GnRH3 (0.1–1,000 nM) on GtHα, LHβ, FSHβ, INHBa, SgII, and DRD2 mRNA expression in grass carp pituitary cells. After drug treatment, the pituitary cells were extracted to total RNA, reversed transcribed, and used for RT-PCR to detect the target genes’ mRNA expression. […] The different letters represent a significant difference at p < 0.05 between groups (ANOVA followed by a Dunnett test).

[2] = system: grass carp pituitary cells; test: qRT-PCR of anorectic genes in pituitary cells; format: cell-based, grass carp (Ctenopharyngodon idellus)
Method: as §1, §2
To further verify the functional role of GnRH2 and GnRH3 on feeding regulation, time- and dose-dependent tests were performed to detect the effect of GnRH2 and GnRH3 on anorectic gene (POMCb, CART2, UTS1, NMBa, NMBb, and LEPR) mRNA expression. In the time-course test, the grass carp pituitary cells were incubated by GnRH2 or GnRH3 (1 μM) for 3, 6, 12, and 24 h, respectively. […] In the dose-dependent test, grass carp pituitary cells were incubated by the continuous gradient dilution of GnRH2 or GnRH3 (0.1–1,000 nM) for 24 h.
Figure 9 Regulation of feeding hormone gene mRNA expression by GnRH2 and GnRH3 in grass carp pituitary cells. (A) Time-course experiment of grass carp GnRH2 (1 μM) and GnRH3 (1 μM) on POMCb, CART2, UTS1, NMBa, NMBb, and LEPR mRNA expression in grass carp pituitary cells. (B) Dose dependence of a 24-h treatment with increasing levels of GnRH2 and GnRH3 (0.1–1,000 nM) on POMCb, CART2, UTS1, NMBa, NMBb, and LEPR mRNA expression in grass carp pituitary cells. […]

goldfish = system: goldfish; set-up: method as in PMID 7507838, PMID 8045371; conditions: sexually regressed animals, ref [34], [35]; cited from earlier work
pituitary = conditions: teleost; ref [5], [10]; cited from earlier work
From the text: Subsequently, GnRH2 had been firstly found in chicken so that this variant was also named as chicken GnRH (cGnRH) ([3]). In addition, the third GnRH variant (GnRH3) was an ubiquitous and unique subtype existing in fish ([3]), which was primitively discovered in salmon so that it was named as salmon GnRH (sGnRH) ([4]). Multiple GnRH variants (two or three forms) are present in all teleosts ([5]), but the receptor selectivity a ...

[3] = 1 μM, time-dependent, Figure 5A

SMILES: CC(C)C[C@H](NC(=O)[C@H](Cc1c[nH]c2ccccc12)NC(=O)CNC(=O)[C@H](Cc1ccc(O)cc1)NC(=O)[C@H](CO)NC(=O)[C@H](Cc1c[nH]c2ccccc12)NC(=O)[C@H](Cc1c[nH]cn1)NC(=O)[C@@H]1CCC(=O)N1)C(=O)N1CCC[C@H]1C(=O)NCC(N)=O [GnRH3] ([pGlu]HWSYGWLPG-NH2)
- effect on DRD2 mRNA expression, time course [1, 3]: inhibit
- effect on GtHα, LHβ, FSHβ, INHBa, and SgII mRNA expression, time course [1, 3]: significantly induce
- effect on DRD2 mRNA expression, dose test ([1]; 0.1–1,000 nM (all treated doses), 24 h, Figure 5B): significantly inhibit
- effect on GtHα, LHβ, FSHβ, INHBa, and SgII mRNA expression, dose dependence ([1]; 0.1–1,000 nM, 24 h, dose-dependent, Figure 5B): significantly induce
- effect on POMCb, CART2, UTS1, NMBa, NMBb, and LEPR mRNA expression, time course ([2]; 1 μM, 3, 6, 12, and 24 h, time-dependent, Figure 9A): significantly induce
- effect on POMCb, CART2, UTS1, NMBa, NMBb, and LEPR mRNA expression, dose dependence ([2]; 0.1–1,000 nM, 24 h, dose-dependent, Figure 9B): significantly induce
- LH-releasing activity (goldfish): potent LH-releasing activity
- effect on LH and FSH secretion in the pituitary (pituitary): could stimulate
